Where “and” joins values, the source holds several entries; their conditions need not be identical. Equal values may be shown once.

The nature of data set [1]: Permeability of pH-modified Clenbuterol CPA through human skin, Franz cell. In kind it is in vitro ADME, Mensch. To be noted: Zelle 1-3 are replicates. The protocol:
Permeabilität von pH-Wort modifiziertem Clenbuterol CPA durch Humanhaut:
Zusammensetzung der CPA's:
Als Freigabeapparatur wurde eine Franz-Zelle verwendet. Dies ist eine übliche Methode, um die Abgabe von Arzneistoffen aus pharmazeutischen Formulierungen zu testen. Proben wurden nach 24 h bzw. 48h entnommen und der Gehalt an Clenbuterol bestimmt.

A short description of data set [2]: Flux rate of Clenbuterol through the skin as a function of the skin surface pH (Fig. 9). The format is in vitro ADME, Mensch. An excerpt:
Überraschenderweise wurde nun festgestellt, daß bei einer transdermalen Applikation von Clenbuterol die Fluxrate für den Wirkstoff entscheidend verbessert werden kann, wenn der pH-Wert der Hautoberfläche auf einen Wert konstant zwischen 6,0 und 8,5 gehalten wird.
Die Fluxrate eines Wirkstoffes durch die Haut ist definiert als Menge des Wirkstoffes pro Hautoberfläche und pro Zeiteinheit und wird üblicherweise in [µg/cm^2 . h] angegeben. In dem oben angegebenen pH-Bereich erreicht die Fluxrate für Clenbuterol ihr Maximum, während bei höheren und niederen pH-Werten die Fluxrate stark abnimmt.
Der pH-Wert der Hautoberfläche ist beim Menschen individuell und temporär verschieden. Ein als Standard angenommener pH-Wert von […] bis 6,0 schwankt im Individualfall zwischen pH 4,5 und 8,0 und hängt von vielen unterschiedlichen Faktoren ab. Schwankungen des pH-Wertes können daneben zum einen durch das Pflaster selbst und zum anderen durch den Wirkstoff hervorgerufen werden. Wie aus der Abb. I ersichtlich ist, nimmt die Fluxrate von Clenbuterol außerhalb des angegebenen pH-Bereichs drastisch ab, so daß eine ausreichende Permeabilität der Haut für Clenbuterol nicht mehr gewährleistet ist.
In Fig. 9 ist die Permeabilität P von Clenbuterol durch die menschliche Haut aufgetragen (Funktion A); P ist angegeben in [cm/sec]. […]

The mark [3] stands for this setting: CPA pH-Wert 3.5 (5 % Clenbuterol, 5 % Zitronensäure, 90 % Eudragit E 30 D).
[4] abbreviates: CPA pH-Wert 10.0 (5 % Clenbuterol, 5 % Na2CO3, 90 % Eudragit E 30 D).

`CC(C)(C)NCC(O)c1cc(Cl)c(N)c(Cl)c1` (stereo not drawn) [Clenbuterol]: the “Clenbuterol Diffusion nach 24 h” value in data set [1] (setting [3]) was 3.48 µg/cm^2 and 0.65 µg/cm^2 and 2.64 µg/cm^2; in data set [1] (setting [4]), 7.8 µg/cm^2 and 11.44 µg/cm^2 and 9.84 µg/cm^2. Also, the “Clenbuterol Diffusion nach 48 h” value in data set [1] (setting [3]) is 5.52 µg/cm^2 and 1.69 µg/cm^2 and 6.04 µg/cm^2; in data set [1] (setting [4]), 21.7 µg/cm^2 and 27.3 µg/cm^2 and 24.2 µg/cm^2. For the same compound, the Fluxrate entry in data set [2] (at pH values higher and lower than the range 6,0 to 8,5) is on record as “stark abnimmt”; in data set [2] (skin surface pH between 6,0 and 8,5), “Maximum”.

For the origin of these results see patent EP0456792B1, “IMPROVED SYSTEM FOR THE TRANSDERMAL APPLICATION OF PHARMACOLOGICALLY ACTIVE COMPOUNDS AT CONTROLLED pH” (Boehringer Ingelheim International GmbH, priority 1989, dated 1991).
